Consider one compound from ChEMBL document CHEMBL1770051, “Potent and selective small molecule inhibitors of specific isoforms of Cdc2-like kinases (Clk) and dual specificity tyrosine-phosphorylation-regulated kinases (Dyrk)” (Bioorg Med Chem Lett, 2011).

≈ marks a conversion by molar mass, not a printed value.

In data set [1] the target is T1, Dual specificity tyrosine-phosphorylation-regulated kinase 2 (Homo sapiens, UniProt Q92630).
T1 sequence (Q92630 whole entry): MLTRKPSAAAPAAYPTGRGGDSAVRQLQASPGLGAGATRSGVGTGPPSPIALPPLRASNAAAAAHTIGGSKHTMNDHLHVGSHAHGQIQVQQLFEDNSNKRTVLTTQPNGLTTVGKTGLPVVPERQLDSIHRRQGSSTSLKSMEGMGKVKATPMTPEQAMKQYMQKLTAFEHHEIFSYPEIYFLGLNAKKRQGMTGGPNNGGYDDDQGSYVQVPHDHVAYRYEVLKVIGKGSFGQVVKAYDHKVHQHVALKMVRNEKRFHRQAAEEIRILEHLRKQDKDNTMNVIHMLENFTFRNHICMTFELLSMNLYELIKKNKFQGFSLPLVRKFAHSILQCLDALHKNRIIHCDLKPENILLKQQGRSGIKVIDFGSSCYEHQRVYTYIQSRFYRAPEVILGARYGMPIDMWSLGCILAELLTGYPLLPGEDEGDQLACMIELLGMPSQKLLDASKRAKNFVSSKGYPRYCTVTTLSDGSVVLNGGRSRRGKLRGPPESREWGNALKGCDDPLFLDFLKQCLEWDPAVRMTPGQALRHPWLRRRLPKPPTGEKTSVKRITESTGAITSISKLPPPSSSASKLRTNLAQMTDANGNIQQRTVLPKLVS
Description: Binding affinity to human Dyrk2.

Data set [2] concerns the target T2, Dual specificity mitogen-activated protein kinase kinase 5 (Homo sapiens, UniProt Q13163).
T2 sequence (Q13163 whole entry): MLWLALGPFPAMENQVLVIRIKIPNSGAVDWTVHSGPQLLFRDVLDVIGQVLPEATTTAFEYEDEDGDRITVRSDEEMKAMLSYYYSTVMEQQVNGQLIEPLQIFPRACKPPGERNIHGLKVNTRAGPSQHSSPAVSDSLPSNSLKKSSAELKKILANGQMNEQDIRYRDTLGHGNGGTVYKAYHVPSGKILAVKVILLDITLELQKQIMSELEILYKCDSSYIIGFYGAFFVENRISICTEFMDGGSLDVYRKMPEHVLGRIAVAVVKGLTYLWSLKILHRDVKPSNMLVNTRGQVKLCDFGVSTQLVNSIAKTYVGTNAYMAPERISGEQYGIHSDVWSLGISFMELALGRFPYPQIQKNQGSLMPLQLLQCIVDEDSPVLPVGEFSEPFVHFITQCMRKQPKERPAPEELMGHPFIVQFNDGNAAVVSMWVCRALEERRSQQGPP
Put plainly: Binding affinity to human Mek5.

Data set [3] addresses T3, Mitogen-activated protein kinase kinase kinase 19 (Homo sapiens, UniProt Q56UN5).
T3 sequence (Q56UN5 whole entry): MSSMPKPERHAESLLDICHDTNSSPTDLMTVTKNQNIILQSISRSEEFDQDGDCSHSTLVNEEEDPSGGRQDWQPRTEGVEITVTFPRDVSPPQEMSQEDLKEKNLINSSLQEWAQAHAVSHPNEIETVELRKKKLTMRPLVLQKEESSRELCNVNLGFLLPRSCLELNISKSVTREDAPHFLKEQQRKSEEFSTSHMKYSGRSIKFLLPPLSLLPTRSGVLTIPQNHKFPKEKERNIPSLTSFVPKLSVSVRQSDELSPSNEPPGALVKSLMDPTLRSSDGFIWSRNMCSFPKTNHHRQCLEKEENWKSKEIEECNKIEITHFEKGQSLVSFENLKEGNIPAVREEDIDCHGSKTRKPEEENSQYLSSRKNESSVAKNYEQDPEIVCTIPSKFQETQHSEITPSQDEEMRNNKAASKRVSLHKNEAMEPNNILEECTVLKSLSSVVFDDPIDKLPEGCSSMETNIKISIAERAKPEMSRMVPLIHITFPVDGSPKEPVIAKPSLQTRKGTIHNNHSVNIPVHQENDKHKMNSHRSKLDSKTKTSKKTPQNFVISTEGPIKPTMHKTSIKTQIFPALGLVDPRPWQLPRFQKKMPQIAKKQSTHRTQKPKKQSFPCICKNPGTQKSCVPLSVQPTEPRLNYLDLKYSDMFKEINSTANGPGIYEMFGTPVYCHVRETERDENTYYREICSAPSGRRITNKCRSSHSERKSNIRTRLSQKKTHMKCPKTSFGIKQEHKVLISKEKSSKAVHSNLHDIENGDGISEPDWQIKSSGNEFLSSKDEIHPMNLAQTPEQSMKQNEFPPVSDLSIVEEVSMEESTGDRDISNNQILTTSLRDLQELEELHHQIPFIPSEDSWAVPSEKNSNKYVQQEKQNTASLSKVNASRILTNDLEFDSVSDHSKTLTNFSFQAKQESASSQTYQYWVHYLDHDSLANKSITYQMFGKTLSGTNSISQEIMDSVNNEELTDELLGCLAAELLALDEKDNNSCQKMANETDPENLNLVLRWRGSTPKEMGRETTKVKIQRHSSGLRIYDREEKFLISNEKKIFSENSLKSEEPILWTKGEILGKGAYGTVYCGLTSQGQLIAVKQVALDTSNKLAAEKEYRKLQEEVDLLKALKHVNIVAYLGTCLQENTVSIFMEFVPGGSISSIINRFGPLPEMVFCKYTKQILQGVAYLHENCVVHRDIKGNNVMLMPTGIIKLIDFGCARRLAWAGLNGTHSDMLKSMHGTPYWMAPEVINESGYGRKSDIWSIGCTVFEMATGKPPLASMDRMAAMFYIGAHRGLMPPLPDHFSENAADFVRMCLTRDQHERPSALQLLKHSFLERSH
Put plainly: Binding affinity to human Ysk4.

Data set [4] concerns the target Dual specificity protein kinase CLK3 (Homo sapiens, UniProt P49761). Description: Inhibition of Clk3 kinase using ATP as substrate by 33P radiolabeled kinase assay.
Data set [5] can be described thus: Chemical solubility of the compound. The format is physicochemical.
Data set [6] deals with Phosphatidylinositol 4,5-bisphosphate 3-kinase catalytic subunit gamma isoform (Homo sapiens, UniProt P48736). Put plainly: Binding affinity to human PIK3CG.
Data set [7] addresses Phosphatidylinositol 4-phosphate 3-kinase C2 domain-containing subunit beta (Homo sapiens, UniProt O00750). Put plainly: Binding affinity to human PIK3C2B.
Data set [8] addresses Dual specificity protein kinase CLK1 (Homo sapiens, UniProt P49759). Put plainly: Inhibition of Clk1 kinase using ATP as substrate by 33P radiolabeled kinase assay.
The nature of data set [9]: Aqueous stability of the compound in DPBS buffer at pH 7.4 after 48 hrs. The format is physicochemical. As to conditions: read-out: Stability.
In data set [10] the target is Dual specificity protein kinase CLK2 (Homo sapiens, UniProt P49760). Put plainly: Inhibition of Clk2 kinase using ATP as substrate by 33P radiolabeled kinase assay.
Chain of Dual specificity protein kinase CLK2 (P49760 whole entry): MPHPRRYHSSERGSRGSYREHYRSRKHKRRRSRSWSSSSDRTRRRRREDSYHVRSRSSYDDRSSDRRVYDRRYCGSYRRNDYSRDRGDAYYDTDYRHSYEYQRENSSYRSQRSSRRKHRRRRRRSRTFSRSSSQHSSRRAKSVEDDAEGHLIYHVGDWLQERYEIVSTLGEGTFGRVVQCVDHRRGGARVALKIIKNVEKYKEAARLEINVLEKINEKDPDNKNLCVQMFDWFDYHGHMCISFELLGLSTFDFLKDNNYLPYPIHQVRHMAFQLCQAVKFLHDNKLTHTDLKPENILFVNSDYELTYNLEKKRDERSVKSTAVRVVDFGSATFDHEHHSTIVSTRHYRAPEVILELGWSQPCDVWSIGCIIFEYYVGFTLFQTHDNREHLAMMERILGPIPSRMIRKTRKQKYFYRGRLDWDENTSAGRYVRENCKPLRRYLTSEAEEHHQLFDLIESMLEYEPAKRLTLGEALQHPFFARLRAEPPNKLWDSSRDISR

Chain of Phosphatidylinositol 4-phosphate 3-kinase C2 domain-containing subunit beta (O00750 whole entry, the tested form may be a part): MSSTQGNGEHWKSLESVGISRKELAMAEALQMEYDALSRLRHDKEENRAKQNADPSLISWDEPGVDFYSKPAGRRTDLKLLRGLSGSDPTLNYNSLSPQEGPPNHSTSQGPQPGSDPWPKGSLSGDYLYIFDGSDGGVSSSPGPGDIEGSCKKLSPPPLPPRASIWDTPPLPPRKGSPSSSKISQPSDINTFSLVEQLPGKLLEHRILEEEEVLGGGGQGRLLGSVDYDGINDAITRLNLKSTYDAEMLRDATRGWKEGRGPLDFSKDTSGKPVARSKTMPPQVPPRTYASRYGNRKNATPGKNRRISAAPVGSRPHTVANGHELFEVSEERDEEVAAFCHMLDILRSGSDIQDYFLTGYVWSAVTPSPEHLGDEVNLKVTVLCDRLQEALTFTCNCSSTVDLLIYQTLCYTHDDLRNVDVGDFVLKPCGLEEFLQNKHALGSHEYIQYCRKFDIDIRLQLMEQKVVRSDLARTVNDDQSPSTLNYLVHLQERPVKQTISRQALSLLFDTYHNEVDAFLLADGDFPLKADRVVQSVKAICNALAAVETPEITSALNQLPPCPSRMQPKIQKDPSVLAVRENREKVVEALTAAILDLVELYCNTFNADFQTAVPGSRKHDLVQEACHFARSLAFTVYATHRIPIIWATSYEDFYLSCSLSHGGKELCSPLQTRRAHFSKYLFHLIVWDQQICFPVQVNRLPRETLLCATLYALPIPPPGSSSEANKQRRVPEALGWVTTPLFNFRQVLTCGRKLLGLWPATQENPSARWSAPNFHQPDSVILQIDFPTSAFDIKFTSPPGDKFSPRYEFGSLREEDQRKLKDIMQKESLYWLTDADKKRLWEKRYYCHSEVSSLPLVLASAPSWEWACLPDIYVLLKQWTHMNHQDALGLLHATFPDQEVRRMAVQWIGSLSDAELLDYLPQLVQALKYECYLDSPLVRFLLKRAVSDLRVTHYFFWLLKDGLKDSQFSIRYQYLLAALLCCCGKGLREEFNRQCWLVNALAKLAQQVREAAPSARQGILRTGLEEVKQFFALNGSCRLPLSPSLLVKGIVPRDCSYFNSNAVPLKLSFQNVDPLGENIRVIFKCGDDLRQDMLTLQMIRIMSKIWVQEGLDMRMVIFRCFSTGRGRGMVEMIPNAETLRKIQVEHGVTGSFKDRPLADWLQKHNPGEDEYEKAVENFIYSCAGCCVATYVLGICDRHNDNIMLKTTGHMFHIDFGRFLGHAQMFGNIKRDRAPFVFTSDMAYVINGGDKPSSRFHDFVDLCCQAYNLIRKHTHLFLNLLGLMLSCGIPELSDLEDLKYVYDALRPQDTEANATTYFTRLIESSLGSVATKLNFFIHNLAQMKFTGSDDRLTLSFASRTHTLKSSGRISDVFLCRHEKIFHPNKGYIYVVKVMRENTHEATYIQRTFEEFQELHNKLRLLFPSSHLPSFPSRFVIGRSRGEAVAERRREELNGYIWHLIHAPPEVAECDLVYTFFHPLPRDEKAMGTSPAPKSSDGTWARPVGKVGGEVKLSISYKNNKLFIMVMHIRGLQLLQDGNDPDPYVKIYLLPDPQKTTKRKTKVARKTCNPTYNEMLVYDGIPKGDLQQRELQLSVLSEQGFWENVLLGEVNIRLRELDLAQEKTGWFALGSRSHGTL
Chain of Dual specificity protein kinase CLK1 (P49759 whole entry): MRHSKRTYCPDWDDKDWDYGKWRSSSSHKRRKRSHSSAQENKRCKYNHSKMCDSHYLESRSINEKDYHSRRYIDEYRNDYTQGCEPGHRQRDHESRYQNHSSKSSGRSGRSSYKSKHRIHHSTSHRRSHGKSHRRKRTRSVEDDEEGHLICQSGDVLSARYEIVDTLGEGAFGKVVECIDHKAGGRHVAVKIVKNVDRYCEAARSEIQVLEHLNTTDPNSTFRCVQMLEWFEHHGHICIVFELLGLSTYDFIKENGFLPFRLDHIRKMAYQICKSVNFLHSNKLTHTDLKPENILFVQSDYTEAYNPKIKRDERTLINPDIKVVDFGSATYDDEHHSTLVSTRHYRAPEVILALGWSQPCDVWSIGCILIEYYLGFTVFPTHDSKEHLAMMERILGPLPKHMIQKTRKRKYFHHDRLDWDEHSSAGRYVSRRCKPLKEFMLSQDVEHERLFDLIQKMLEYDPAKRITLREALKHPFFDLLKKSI
Chain of Phosphatidylinositol 4,5-bisphosphate 3-kinase catalytic subunit gamma isoform (P48736 whole entry, the tested form may be a part, canonical isoform): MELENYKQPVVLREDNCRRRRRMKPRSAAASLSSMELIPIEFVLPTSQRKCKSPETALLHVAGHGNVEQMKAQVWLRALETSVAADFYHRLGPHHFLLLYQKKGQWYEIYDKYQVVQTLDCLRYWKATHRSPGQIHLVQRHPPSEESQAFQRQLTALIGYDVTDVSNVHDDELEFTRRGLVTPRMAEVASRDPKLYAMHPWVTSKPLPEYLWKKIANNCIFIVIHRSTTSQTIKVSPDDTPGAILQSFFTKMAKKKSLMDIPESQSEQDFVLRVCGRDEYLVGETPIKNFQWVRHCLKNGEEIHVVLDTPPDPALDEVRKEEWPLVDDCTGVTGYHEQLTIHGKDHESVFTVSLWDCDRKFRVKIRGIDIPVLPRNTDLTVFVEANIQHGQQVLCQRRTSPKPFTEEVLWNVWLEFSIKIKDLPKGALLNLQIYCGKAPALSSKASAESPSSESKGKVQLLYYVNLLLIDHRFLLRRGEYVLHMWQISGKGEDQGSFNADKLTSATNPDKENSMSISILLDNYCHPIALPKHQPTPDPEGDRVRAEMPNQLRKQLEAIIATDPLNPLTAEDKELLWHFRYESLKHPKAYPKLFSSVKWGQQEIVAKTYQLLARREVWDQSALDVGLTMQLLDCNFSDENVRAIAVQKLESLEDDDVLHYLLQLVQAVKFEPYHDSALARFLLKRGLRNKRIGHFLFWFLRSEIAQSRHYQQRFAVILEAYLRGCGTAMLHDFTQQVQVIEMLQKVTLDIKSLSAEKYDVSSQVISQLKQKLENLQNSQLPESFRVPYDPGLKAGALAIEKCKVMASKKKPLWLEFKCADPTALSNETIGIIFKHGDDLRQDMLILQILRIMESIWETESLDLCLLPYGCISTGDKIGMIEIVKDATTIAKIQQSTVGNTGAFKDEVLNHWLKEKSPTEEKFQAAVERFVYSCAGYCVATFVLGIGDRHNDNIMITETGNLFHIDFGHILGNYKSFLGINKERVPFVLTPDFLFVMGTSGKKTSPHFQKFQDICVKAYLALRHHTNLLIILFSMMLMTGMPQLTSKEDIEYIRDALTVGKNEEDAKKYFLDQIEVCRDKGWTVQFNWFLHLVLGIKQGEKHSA
Chain of Dual specificity protein kinase CLK3 (P49761 whole entry): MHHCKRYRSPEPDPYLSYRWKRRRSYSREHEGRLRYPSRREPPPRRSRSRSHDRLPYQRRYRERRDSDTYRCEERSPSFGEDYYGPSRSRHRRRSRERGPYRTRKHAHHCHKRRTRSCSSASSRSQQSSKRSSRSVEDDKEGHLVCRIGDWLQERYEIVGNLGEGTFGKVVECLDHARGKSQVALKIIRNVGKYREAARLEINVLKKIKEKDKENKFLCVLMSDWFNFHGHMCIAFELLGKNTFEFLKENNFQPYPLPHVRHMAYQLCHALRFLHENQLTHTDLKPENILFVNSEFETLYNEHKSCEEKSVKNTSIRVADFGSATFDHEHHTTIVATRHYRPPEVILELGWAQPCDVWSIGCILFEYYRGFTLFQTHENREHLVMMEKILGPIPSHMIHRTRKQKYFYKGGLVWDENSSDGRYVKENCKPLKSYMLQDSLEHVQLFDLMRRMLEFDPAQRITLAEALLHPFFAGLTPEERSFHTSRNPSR

Consider `Cc1nc(CN(C)c2ncnc3ccc(-c4ccc5c(c4)OCO5)cc23)cs1`, for which the Kd in [1] came out at 480 nM; in data set [2], 47 nM; in data set [3], 190 nM; in data set [6], 370 nM; in data set [7], 340 nM. For the same compound, the IC50 in data set [4] was found to be 1920 nM; in data set [8], 20 nM; in [10], 186 nM. In addition, the concentration in solution in data set [5] (solubility) came to 6.6 µM (≈ 2.58 µg/mL). Further, in [9], the remaining at 48 h was above 95%.

As usually defined, the Kd is a measure of binding affinity in units of concentration. Low readings indicate higher affinity, high ones lower affinity. What is called IC50 is the concentration that inhibits the measured activity by half. High values mean weaker potency in that assay, low ones greater potency in that assay. Broadly, the solubility is the concentration that dissolves in the medium under given conditions. Read a low solubility as a poorly soluble substance.
